Reference: ChEMBL document CHEMBL1136940, “Design and implementation of an ribonucleic acid (RNA) directed fragment library” (J Med Chem, 2009)
Each block holds one molecule with its values, some of them ahead of it. The source made the active and inactive calls. The calls are words filed in the database; no cut-off is given here. *1 amine or outer side, *2 acyl side, *3 side chain or, on linkers, in order; H or OH if unused. Where a SMILES comes first, the peptide text is derived from it. Bridges are numbered along the chain shown (N, C = ends). [ ]: non-standard residue; d: D form. The star is where a group is joined. X1 = NC1=N[C@@H]([C@H](N[*:1])C(=O)[*:2])C[C@H](O)N1; ΔAla(Z-3-ureido) = NC(=O)N/C=C(\N)C(=O)O; β3hOrn = NCCC[C@H](N)CC(=O)*; Dap = NC[C@H](N)C(=O)O

Legend:
Type in all cases: nucleic-acid assay
Nucleic Acid [1] = experiment: Displacement of gentamycin from Escherichia coli 16S ribosomal 27-nucleotide A-site RNA by water Logsy NMR spectroscopy based competitive displacement assay
Nucleic Acid [2] = experiment: Displacement of gentamycin from Escherichia coli 16S ribosomal 27-nucleotide A-site RNA by T2 filter NMR spectroscopy based competitive displacement assay
Nucleic Acid [3] = experiment: Displacement of gentamycin from RNA bulge site of Escherichia coli 16S ribosomal 27-nucleotide A-site RNA by water Logsy NMR spectroscopy based noncompetitive binding assay
Nucleic Acid [4] = experiment: Displacement of gentamycin from RNA bulge site of Escherichia coli 16S ribosomal 27-nucleotide A-site RNA by T2 filter NMR spectroscopy based competitive binding assay
Nucleic Acid [5] = experiment: Binding affinity to A-site RNA
Nucleic Acid [6] = experiment: Binding affinity to Escherichia coli 23S rRNA L11 binding domain
Nucleic Acid [7] = experiment: Binding affinity to RNAse P
Nucleic Acid [8] = experiment: Binding affinity to small bacterial subunit RNA
Nucleic Acid [9] = experiment: Binding affinity to Escherichia coli 23S rRNA L11 binding domain in presence of protein
Nucleic Acid [10] = experiment: Binding affinity to ribosome/exit tunnel RNA region
Nucleic Acid [11] = experiment: Binding affinity to RNA ribosome intersubuint bridge

SMILES: Cc1cc(N(C)C)nc2cc(N)ccc12
- Activity (Nucleic Acid [1]): Active
- Activity (Nucleic Acid [2]): Active

SMILES: N[C@@H]1C[C@H](N)[C@@H](O)[C@H](O)[C@H]1O
- Activity (Nucleic Acid [1]): Active
- Activity (Nucleic Acid [2]): Active

SMILES: c1ccc2nc3ccccc3cc2c1
- Activity (Nucleic Acid [3]): Active
- Activity (Nucleic Acid [4]): Active

SMILES: NCC[C@H](O)C(=O)N[C@@H]1C[C@H](N)[C@@H](O[C@H]2O[C@H](CN)[C@@H](O)[C@H](O)[C@H]2O)[C@H](O)[C@H]1O[C@H]1O[C@H](CO)[C@@H](O)[C@H](N)[C@H]1O [AMIKACIN]
- Kd (Nucleic Acid [5]): 50 nM

SMILES: CN[C@@H]1[C@@H](O[C@H]2O[C@H](CO)[C@@H](N)[C@H](O)[C@H]2O)OC2C[C@@H](N)[C@@H](O[C@H]3[C@H](O)[C@@H](O)[C@H](N)C[C@@H]3N)OC2[C@@H]1O (stereo partly drawn) [APRAMYCIN]
- Kd (Nucleic Acid [5]): 60 nM

SMILES: CN[C@@H]1[C@@H](O)[C@@H](O[C@@H]2[C@@H](O)[C@H](O[C@H]3O[C@H]([C@@H](C)O)[C@@H](O)[C@H](O)[C@H]3N)[C@@H](N)C[C@H]2N)OC[C@]1(C)O [GENETICIN]
- Kd (Nucleic Acid [5]): < 100 nM

SMILES: C=C(NC(=O)c1csc(-c2nc3c(cc2O)-c2nc(cs2)C(=O)NC(C(C)O)C(=O)N/C(=C\C)c2nc(cs2)C(=O)NC2CC(O)C(=O)OCc4cccc5[nH]c(c(C)c45)C(=O)SCC(NC(=O)c4csc2n4)c2nc-3cs2)n1)C(N)=O (stereo not drawn) [NOSIHEPTIDE]
- Kd (Nucleic Acid [6]): < 3000 nM

SMILES: NC[C@@H]1O[C@H](O[C@H]2[C@@H](O)[C@H](O[C@@H]3[C@@H](O)[C@H](N)C[C@H](N)[C@H]3O[C@H]3O[C@H](CO)[C@@H](O)[C@H](O)[C@H]3N)O[C@@H]2CO)[C@H](N)[C@@H](O)[C@@H]1O [PAROMOMYCIN]
- Kd (Nucleic Acid [5]): < 12000 nM

SMILES: C=C(NC(=O)C(=C)NC(=O)c1csc(C2=N[C@@H]3c4csc(n4)[C@H]4NC(=O)c5csc(n5)[C@H]([C@](C)(O)[C@@H](C)O)NC(=O)[C@H]5CSC(=N5)/C(=C/C)NC(=O)[C@H]([C@@H](C)O)NC(=O)c5csc(n5)[C@]3(CC2)NC(=O)[C@H](C)NC(=O)C(=C)NC(=O)[C@H](C)NC(=O)[C@H]([C@@H](C)CC)N[C@@H]2C=Cc3c([C@H](C)O)cc(nc3[C@H]2O)C(=O)O[C@@H]4C)n1)C(N)=O [THIOSTREPTON]
- Kd (Nucleic Acid [6]): 1300 nM
- Kd (Nucleic Acid [9]): < 50 nM

Next, values leading:

- Kd (Nucleic Acid [5]): 60 nM
SMILES: NC[C@H]1O[C@H](O[C@H]2[C@H](O)[C@@H](O[C@H]3O[C@H](CO)[C@@H](O)[C@H](N)[C@H]3O)[C@H](N)C[C@@H]2N)[C@H](N)[C@@H](O)[C@@H]1O [BEKANAMYCIN]

- Kd (Nucleic Acid [5]): 60 nM
SMILES: NC[C@@H]1O[C@H](O[C@H]2[C@@H](O)[C@H](O[C@@H]3[C@@H](O)[C@H](N)C[C@H](N)[C@H]3O[C@H]3O[C@H](CN)[C@@H](O)[C@H](O)[C@H]3N)O[C@@H]2CO)[C@H](N)[C@@H](O)[C@@H]1O [FRAMYCETIN]

- Kd (Nucleic Acid [5]): 100 nM
SMILES: NC[C@@H]1O[C@@H](O[C@H]2[C@H](O)[C@@H](O[C@H]3O[C@H](CO)[C@@H](O)[C@H](N)[C@H]3O)[C@H](N)C[C@@H]2N)[C@@H](O)[C@H](O)[C@H]1O [KANAMYCIN A]

- Kd (Nucleic Acid [5]): 28 nM
SMILES: NC[C@@H]1O[C@H](O[C@H]2[C@@H](O)[C@H](O[C@@H]3[C@@H](O)[C@H](N)C[C@H](N)[C@H]3O[C@H]3O[C@H](CO)[C@@H](O)C[C@H]3N)O[C@@H]2CO)[C@H](N)[C@@H](O)[C@@H]1O[C@H]1O[C@H](CO)[C@@H](O)[C@H](O)[C@@H]1O [LIVIDOMYCIN]

- Kd (Nucleic Acid [7]): 20000 nM
SMILES: NC(=O)Cc1ccccn1 [PYRIDINE ACETAMIDE]

- Kd (Nucleic Acid [5]): 1700 nM
SMILES: NC[C@H]1O[C@H](O[C@H]2[C@H](O[C@@H]3O[C@H](CO)[C@@H](O)[C@H]3O)[C@@H](O)[C@H](N)C[C@@H]2N)[C@H](N)[C@@H](O)[C@@H]1O [RIBOSTAMYCIN]

- Kd (Nucleic Acid [8]): < 12000 nM
SMILES: CN[C@@H]1[C@H](O[C@H]2[C@H](O[C@H]3[C@H](O)[C@@H](O)[C@H](N=C(N)N)[C@@H](O)[C@@H]3N=C(N)N)O[C@@H](C)[C@]2(O)C=O)O[C@@H](CO)[C@H](O)[C@H]1O [STREPTOMYCIN]

- Kd (Nucleic Acid [5]): 80 nM
SMILES: NC[C@H]1O[C@H](O[C@H]2[C@H](O)[C@@H](O[C@H]3O[C@H](CO)[C@@H](O)[C@H](N)[C@H]3O)[C@H](N)C[C@@H]2N)[C@H](N)C[C@@H]1O [TOBRAMYCIN]

- Kd (Nucleic Acid [10]): 2.75 nM
SMILES: CC[C@H]1OC(=O)C[C@@H](O)[C@H](C)[C@@H](O[C@@H]2O[C@H](C)[C@@H](O[C@H]3C[C@@](C)(O)[C@@H](O)[C@H](C)O3)[C@H](N(C)C)[C@H]2O)[C@@H](CC=O)C[C@@H](C)C(=O)/C=C/C(C)=C/[C@@H]1CO[C@@H]1O[C@H](C)[C@@H](O)[C@@H](OC)[C@H]1OC [TYLOSIN]

- Kd (Nucleic Acid [11]): < 3000 nM
SMILES: NCCC[C@H](N)CC(=O)N[C@H]1CNC(=O)[C@H]([C@H]2C[C@H](O)NC(N)=N2)NC(=O)/C(=C/NC(N)=O)NC(=O)[C@H](CO)NC(=O)[C@H](CO)NC1=O [VIOMYCIN] (β3hOrn-[Dap]SS[ΔAla(Z-3-ureido)][X1]; lactam 1-C)
